Paper PMC7501296, “Rapid and direct control of target protein levels with VHL-recruiting dTAG molecules” (Nature Communications, 2020)
Where “and” joins values, the source holds several entries; their conditions need not be identical. Equal values may be shown once.

Tests used:
Type in all cases: cell-based
[1] = tested on: PATU-8902 FKBP12^F36V-KRAS^G12V; KRAS^-/- clone; test: Antiproliferation, PATU-8902 FKBP12F36V-KRASG12V; KRAS-/- clone, 2D-monolayer (CellTiter-Glo)
Experimental: (§1) Cell viability was assayed in 2D-adherent or ultra-low adherent 3D-spheroids using CellTiter-Glo (Promega)[6],[15]. Luminescence was measured on an Envision 2104 plate reader (PerkinElmer) and Fluostar Omega Reader (BMG Labtech) and data was analyzed using GraphPad PRISM v8. Synergy assessments were performed using CellTiter-Glo (Promega) with the following modifications to the protocol described in the ref. [34]. In brief, EWS502 cells were plated at 1000 cells per well in 50 µL of appropriate media in 384-well white culture plates (Corning) allowed to adhere overnight, and 100 nL of compounds were added using a Janus Workstation pin tool (PerkinElmer) for 72 h. Cell viability was measured by addition of 10 µL of CellTiter-glo (Promega), followed by incubation for 15 minutes at room temperature. Luminescence was measured on an Envision 2104 plate reader (PerkinElmer) and data was analyzed using GraphPad PRISM v8.

[2] = tested on: PATU-8902 FKBP12^F36V-KRAS^G12V; KRAS^-/- clone; test: Antiproliferation, PATU-8902 FKBP12F36V-KRASG12V; KRAS-/- clone, 3D-spheroid (CellTiter-Glo); details: FKBP12F36V-KRASG12V, KRAS-/-, 3D-spheroid, replicate values
Experimental: as §1

[3] = tested on: PATU-8902 LACZ-FKBP12^F36V clone; test: Antiproliferation, PATU-8902 LACZ-FKBP12F36V clone, 2D-monolayer (CellTiter-Glo)
Experimental: as §1

[4] = molecular target: T1, FKBP12^WT-Nluc (Homo sapiens, UniProt P62942); test: FKBP12WT-Nluc dual luciferase assay (293FT); details: 293FT FKBP12WT-Nluc, 24 h
T1 construct: expressed in transfected cells; host or cells: 293FT
Experimental: (§2) Dual luciferase assays were performed using 293FT FKBP12^WT-Nluc and FKBP12^F36V-Nluc cells. In brief, cells were plated at 2000 cells per well in 20 µL of appropriate media in 384-well white culture plates (Corning), allowed to adhere overnight, and 100 nL of compounds were added using a Janus Workstation pin tool (PerkinElmer) for 24 h at 37 °C. To evaluate Fluc signal, plates were brought to room temperature, 20 µL of Dual-Glo Reagent (Promega) was added for 10 min and luminescence was measured on an Envision 2104 plate reader (PerkinElmer). Subsequently, 20 µL of Dual-Glo Stop & Glo Reagent (Promega) was added for 10 min and luminescence was again measured to capture Nluc signal. DMSO-normalized ratios of Nluc/Fluc signal was analyzed and plotted using GraphPad PRISM v8[6].

[5] = molecular target: T2, FKBP12^F36V-Nluc (Homo sapiens, UniProt P62942, F37V); test: FKBP12F36V-Nluc dual luciferase assay (293FT); details: 293FT FKBP12F36V-Nluc, 24 h
T2 construct: expressed in transfected cells; host or cells: 293FT
Experimental: as §2

[6] = tested on: PATU-8902 LACZ-FKBP12^F36V clone; test: Antiproliferation, PATU-8902 LACZ-FKBP12F36V clone, 3D-spheroid (CellTiter-Glo)
Experimental: as §1

[7] = log10[compound] (M) -5.69897, replicate values
[8] = log10[compound] (M) -6.19897, replicate values
[9] = log10[compound] (M) -6.69897, replicate values
[10] = log10[compound] (M) -7.19897, replicate values
[11] = log10[compound] (M) -7.69897, replicate values
[12] = log10[compound] (M) -8.19897, replicate values
[13] = log10[compound] (M) -8.69897, replicate values
[14] = log10[compound] (M) -9.19897, replicate values
[15] = log10[compound] (M) -9.69897, replicate values
[16] = log10[compound] (M) -10.199, replicate values
[17] = log10[compound] (M) -5.30103, single replicates
[18] = log10[compound] (M) -5.80103, single replicates
[19] = log10[compound] (M) -6.30103, single replicates
[20] = log10[compound] (M) -6.80103, single replicates
[21] = log10[compound] (M) -7.30103, single replicates
[22] = log10[compound] (M) -7.80103, single replicates
[23] = log10[compound] (M) -8.30103, single replicates
[24] = log10[compound] (M) -8.80103, single replicates
[25] = log10[compound] (M) -9.30103, single replicates
[26] = log10[compound] (M) -9.80103, single replicates

T2 sequence (P62942 2-108 F37V limits assumed): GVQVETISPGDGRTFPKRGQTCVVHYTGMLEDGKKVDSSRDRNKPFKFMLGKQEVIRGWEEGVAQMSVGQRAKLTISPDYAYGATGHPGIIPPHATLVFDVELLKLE
T1 sequence (P62942 2-108 limits assumed): as the sequence (P62942 2-108 F37V limits assumed) above, with V36F counted along it

SMILES: CC[C@H](C(=O)N1CCCC[C@H]1C(=O)O[C@H](CCc1ccc(OC)c(OC)c1)c1ccccc1OCC(=O)NCCCCCCOc1cccc2c1C(=O)N(C1CCC(=O)N(C)C1=O)C2=O)c1cc(OC)c(OC)c(OC)c1 (stereo partly drawn) [dTAG-13-NEG]
- DMSO-normalized antiproliferation [1, 7]: 50.9912 and 75.2013 and 73.3197 and 81.1372
- DMSO-normalized antiproliferation [1, 8]: 68.0095 and 98.7671 and 119.504 and 100.111
- DMSO-normalized antiproliferation [1, 9]: 129.938 and 93.0967 and 131.778 and 96.6262
- DMSO-normalized antiproliferation [1, 10]: 111.6 and 154.459 and 120.786 and 146.95
- DMSO-normalized antiproliferation [1, 11]: 99.1211 and 134.569 and 105.935 and 133.398
- DMSO-normalized antiproliferation [1, 12]: 121.063 and 109.153 and 96.3979 and 125.341
- DMSO-normalized antiproliferation [1, 13]: 116.243 and 134.344 and 103.587 and 114.006
- DMSO-normalized antiproliferation [1, 14]: 75.2314 and 130.564 and 98.3202 and 135.021
- DMSO-normalized antiproliferation [1, 15]: 119.764 and 98.922 and 106.747 and 99.1636
- DMSO-normalized antiproliferation [1, 16]: 97.9582 and 111.563 and 110.426 and 109.944
- DMSO-normalized antiproliferation ([2]; log10[compound] (M) -5.69897): 96.8823 and 98.3914 and 98.1687 and 89.6654
- DMSO-normalized antiproliferation ([2]; log10[compound] (M) -6.19897): 105.48 and 122.576 and 96.899 and 128.406
- DMSO-normalized antiproliferation ([2]; log10[compound] (M) -6.69897): 114.368 and 120.61 and 116.857 and 110.62
- DMSO-normalized antiproliferation ([2]; log10[compound] (M) -7.19897): 96.9046 and 91.4307 and 93.53 and 114.106
- DMSO-normalized antiproliferation ([2]; log10[compound] (M) -7.69897): 103.386 and 104.261 and 89.7267 and 101.721
- DMSO-normalized antiproliferation ([2]; log10[compound] (M) -8.19897): 101.449 and 95.4289 and 118.555 and 115.899
- DMSO-normalized antiproliferation ([2]; log10[compound] (M) -8.69897): 120.176 and 108.237 and 116.378 and 119.908
- DMSO-normalized antiproliferation ([2]; log10[compound] (M) -9.19897): 94.538 and 95.4846 and 105.848 and 104.818
- DMSO-normalized antiproliferation ([2]; log10[compound] (M) -9.69897): 83.4954 and 97.4225 and 109.1 and 101.059
- DMSO-normalized antiproliferation ([2]; log10[compound] (M) -10.199): 96.7821 and 78.8679 and 98.5696 and 88.8079
- DMSO-normalized antiproliferation [3, 7]: 72.8225 and 72.1303 and 101.197 and 90.2175
- DMSO-normalized antiproliferation [3, 8]: 131.635 and 91.018 and 75.6842 and 106.809
- DMSO-normalized antiproliferation [3, 9]: 122.78 and 97.8706 and 155.447 and 120.938
- DMSO-normalized antiproliferation [3, 10]: 130.888 and 102.417 and 116.74 and 117.366
- DMSO-normalized antiproliferation [3, 11]: 130.608 and 108.743 and 109.209 and 155.426
- DMSO-normalized antiproliferation [3, 12]: 126.2 and 112.564 and 135.746 and 163.91
- DMSO-normalized antiproliferation [3, 13]: 114.853 and 118.921 and 108.594 and 114.639
- DMSO-normalized antiproliferation [3, 14]: 149.935 and 111.753 and 119.231 and 88.5759
- DMSO-normalized antiproliferation [3, 15]: 130.478 and 106.921 and 102.092 and 104.28
- DMSO-normalized antiproliferation [3, 16]: 146.921 and 153.043 and 111.382 and 113.309
- DMSO-normalized ratio of Nluc/Fluc signal [4, 17]: 67.0666 and 77.8998 and 91.6821 and 102.898
- DMSO-normalized ratio of Nluc/Fluc signal [4, 18]: 78.9348 and 111.471 and 83.3725 and 82.7897
- DMSO-normalized ratio of Nluc/Fluc signal [4, 19]: 92.3022 and 94.9354 and 69.2394 and 97.8278
- DMSO-normalized ratio of Nluc/Fluc signal [4, 20]: 96.006 and 100.644 and 74.9876 and 76.7216
- DMSO-normalized ratio of Nluc/Fluc signal [4, 21]: 72.8244 and 95.6646 and 99.6579 and 99.4332
- DMSO-normalized ratio of Nluc/Fluc signal [4, 22]: 97.6563 and 103.416 and 111.647 and 107.58
- DMSO-normalized ratio of Nluc/Fluc signal [4, 23]: 72.1292 and 95.3278 and 119.638 and 97.0458
- DMSO-normalized ratio of Nluc/Fluc signal [4, 24]: 78.9909 and 117.088 and 62.8565 and 76.9455
- DMSO-normalized ratio of Nluc/Fluc signal [4, 25]: 119.218 and 128.013 and 101.879 and 100.194
- DMSO-normalized ratio of Nluc/Fluc signal [4, 26]: 65.6358 and 99.3457 and 89.3391 and 80.9056
- DMSO-normalized ratio of Nluc/Fluc signal [5, 17]: 107.485 and 132.51 and 146.194 and 142.752
- DMSO-normalized ratio of Nluc/Fluc signal [5, 18]: 129.127 and 105.072 and 162.6 and 136.425
- DMSO-normalized ratio of Nluc/Fluc signal [5, 19]: 79.0888 and 120.578 and 92.5034 and 88.448
- DMSO-normalized ratio of Nluc/Fluc signal [5, 20]: 88.2422 and 88.8583 and 65.8176 and 62.4888
- DMSO-normalized ratio of Nluc/Fluc signal [5, 21]: 134.755 and 99.5368 and 72.6182 and 68.5345
- DMSO-normalized ratio of Nluc/Fluc signal [5, 22]: 97.7941 and 97.6227 and 54.6259 and 65.8847
- DMSO-normalized ratio of Nluc/Fluc signal [5, 23]: 87.9478 and 99.3529 and 98.1344 and 118.766
- DMSO-normalized ratio of Nluc/Fluc signal [5, 24]: 97.4127 and 84.7262 and 88.2477 and 92.5526
- DMSO-normalized ratio of Nluc/Fluc signal [5, 25]: 102.465 and 92.5515 and 101.177 and 79.93
- DMSO-normalized ratio of Nluc/Fluc signal [5, 26]: 77.6015 and 76.7835 and 70.5544 and 62.7116
- DMSO-normalized antiproliferation [6, 7]: 78.2662 and 80.6112 and 107.636 and 101.511
- DMSO-normalized antiproliferation [6, 8]: 115.881 and 119.912 and 109.909 and 110.138
- DMSO-normalized antiproliferation [6, 9]: 134.032 and 111.738 and 124.289 and 133.898
- DMSO-normalized antiproliferation [6, 10]: 111.46 and 97.6141 and 114.554 and 105.672
- DMSO-normalized antiproliferation [6, 11]: 122.388 and 133.597 and 106.246 and 144.762
- DMSO-normalized antiproliferation [6, 12]: 120.684 and 101.999 and 116.106 and 132.987
- DMSO-normalized antiproliferation [6, 13]: 123.405 and 123.822 and 121.356 and 113.012
- DMSO-normalized antiproliferation [6, 14]: 108.263 and 109.792 and 100.309 and 162.971
- DMSO-normalized antiproliferation [6, 15]: 109.842 and 96.251 and 145.82 and 104.761
- DMSO-normalized antiproliferation [6, 16]: 93.2647 and 77.5801 and 110.815 and 107.241
